Experimental data from patent US20240294537A1, “SOLID STATE FORMS OF 4-[[4-(4-CHLOROANILINO)FURO[2,3-d]PYRIDAZIN-7-yl]OXYMETHYL]-N-METHYLPYRIDINE-2-CARBOXAMIDE AND SALT THEREOF” (TEVA PHARMACEUTICALS INTERNATIONAL GMBH, priority 2021, published 2024).

Assay: Stability of the solid state form upon exposure to humidity
Type: physicochemical
Procedure: Telatinib mono mesylate Form TM2 is stable upon exposure to high humidity. Telatinib mono mesylate is stable when exposed to 20-100% RH at 25° C. for 7 days.

stability upon exposure to high humidity: stable
Structure (SMILES): CNC(=O)c1cc(COc2nnc(Nc3ccc(Cl)cc3)c3ccoc23)ccn1.CS(=O)(=O)O [Telatinib mono mesylate Form TM2]
